Data from paper PMC9416741, “New-Generation Heterocyclic Bis-Pentamethinium Salts as Potential Cytostatic Drugs with Dual IL-6R and Mitochondria-Targeting Activity” (Pharmaceutics, 2022).
Where a name gives a salt, the structure may show the parent alone. Read-outs that look alike come from different tables or passages of the source. One block for each molecule: values may come before it.

Legend:
IL-6R (Homo sapiens) = IL-6R (Homo sapiens) (UniProt P08887); conditions: cited from earlier work
BT-20 = experiment: cells; design: MTT metabolic activity assay, absorbance at 570 nm; conditions: Homo sapiens, BT-20, 48 h, single replicate
Procedure: (§1) A colorimetric MTT cell metabolic activity assay was used to determine the cytotoxicity of Bis-PMSs 5 and 6. For these experiments, the HF-P4, BJ-hTERT, BLM, A-2058, U-2 OS, H1299 and BT-20 cells were cultured under standard conditions (37 °C, humidified atmosphere with 5% CO2 in air) in culture medium (DMEM, RPMI-1640, McCoy’s or EMEM with 10% FBS). Cells were plated in 96-well plates at a density of 5000 cells per well and grown for 24 h. The medium was then replaced with a medium containing Bis-PMSs 5 and 6, and cells were cultured for an additional 48 h. Afterwards, the medium was exchanged for medium with the MTT yellow tetrazolium dye (3-(4,5-dimethylthiazol-2-yl)-2,5-diphenyltetrazolium bromide, Sigma-Aldrich) and incubated for 2 h at 37 °C. After that, the yellow tetrazole dye was removed and DMSO was used to dissolve the reduced purple formazan formed in living cells. The absorbance of the converted dye was measured at a wavelength of 570 nm with the reference of 630 nm using a SpectraMax ABS Plus microplate reader (Molecular Devices). Experiments were performed in quadruplicate and repeated three times with similar results. In U251MG and GL261 cells, an assay assessing cell growth independent of mitochondrial respiration was used. Cells were plated in 96-well plates at a density of 5000 cells per well and grown for 24 h under standard conditions in culture medium (DMEM and RPMI-1640 with 10% FBS for U251MG and Gl261 cells, respectively). The medium was then replaced by that supplemented with Bis-PMSs 5 and 6. After 72 h of exposure, surviving cells were fixed and stained with [compound left out] blue (5 g/L in 50%, v/v, ethanol) and lysed with 1% sodium dodecyl sulfate, and the relative cell number was determined by reading absorbance at 630 nm using a 96-well plate reader (Sunrise; Tecan, Männedorf, Switzerland). The cell inhibitory concentration (IC) was calculated using the equation IC = (APMS well/mean Acontrol wells) × 100%. The half-maximal inhibitory concentration (IC50) was calculated from dose–response curves using GraphPad Prism software (v. 8.0.1, La Jolla, CA, USA). The selectivity indexes towards cancer cells were calculated as a ratio of the average of the IC50 values for HF-P4 and BJ-hTERT human fibroblasts and the IC50 value for the corresponding cancer cell line. For U251MG and Gl261 glioblastoma cells, the cytoselectivity was calculated against normal HF P4 fibroblast cells, which were analyzed using the same cytotoxicity assay. The cytotoxic activities of Bis-PMSs 5 and 6 were evaluated in normal (HF-P4 and BJ-hTERT fibroblasts) and malignant (BLM, A-2058, U-2 OS, H1299, BT-20) cells using a conventional MTT viability assay. For the measurements, cells were exposed to 0–10 µM of Bis-PMSs 5 and 6 under standard conditions in a complete cell culture medium and cell viability was measured after 48 h of treatment. In addition, cytotoxicity was tested in U251MG and Gl261 glioma cells using an assay that assesses cell growth independent of mitochondrial respiration (Figures S10 and S11 and Table S3).

H1299 = experiment: cells; design: MTT metabolic activity assay, absorbance at 570 nm; conditions: Homo sapiens, NCI-H1299, 48 h, single replicate
Procedure: as §1

BLM = experiment: cells; design: MTT metabolic activity assay, absorbance at 570 nm; conditions: 48 h, single replicate
Procedure: as §1

U2-OS = experiment: cells; design: MTT metabolic activity assay, absorbance at 570 nm; conditions: Homo sapiens, U2OS, 48 h, single replicate
Procedure: as §1

A2058 = experiment: cells; design: MTT metabolic activity assay, absorbance at 570 nm; conditions: Homo sapiens, A2058, 48 h, single replicate
Procedure: as §1

[1] = target: T1, IL-6R (IL-6 receptor containing α and β subunits) (Homo sapiens, UniProt P08887+P40189); experiment: microscale thermophoresis (T-jump); format: binding; conditions: read-out: dissociation constant
T1 construct: gene IL6R; commercial IL-6R (Bio-Techne R&D Systems), said to contain alpha and beta subunits
T1 sequence (P08887 20-365 limits assumed): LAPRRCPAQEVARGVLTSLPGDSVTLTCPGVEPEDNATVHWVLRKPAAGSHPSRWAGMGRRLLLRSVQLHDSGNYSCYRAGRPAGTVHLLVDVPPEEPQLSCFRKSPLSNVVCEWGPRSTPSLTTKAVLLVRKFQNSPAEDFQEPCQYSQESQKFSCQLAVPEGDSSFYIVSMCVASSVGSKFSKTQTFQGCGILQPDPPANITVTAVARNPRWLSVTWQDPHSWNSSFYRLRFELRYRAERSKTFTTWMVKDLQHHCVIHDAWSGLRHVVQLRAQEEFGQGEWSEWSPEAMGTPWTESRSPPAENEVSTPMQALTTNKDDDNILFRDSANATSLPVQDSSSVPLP
T1 sequence (P40189 23-619 limits assumed): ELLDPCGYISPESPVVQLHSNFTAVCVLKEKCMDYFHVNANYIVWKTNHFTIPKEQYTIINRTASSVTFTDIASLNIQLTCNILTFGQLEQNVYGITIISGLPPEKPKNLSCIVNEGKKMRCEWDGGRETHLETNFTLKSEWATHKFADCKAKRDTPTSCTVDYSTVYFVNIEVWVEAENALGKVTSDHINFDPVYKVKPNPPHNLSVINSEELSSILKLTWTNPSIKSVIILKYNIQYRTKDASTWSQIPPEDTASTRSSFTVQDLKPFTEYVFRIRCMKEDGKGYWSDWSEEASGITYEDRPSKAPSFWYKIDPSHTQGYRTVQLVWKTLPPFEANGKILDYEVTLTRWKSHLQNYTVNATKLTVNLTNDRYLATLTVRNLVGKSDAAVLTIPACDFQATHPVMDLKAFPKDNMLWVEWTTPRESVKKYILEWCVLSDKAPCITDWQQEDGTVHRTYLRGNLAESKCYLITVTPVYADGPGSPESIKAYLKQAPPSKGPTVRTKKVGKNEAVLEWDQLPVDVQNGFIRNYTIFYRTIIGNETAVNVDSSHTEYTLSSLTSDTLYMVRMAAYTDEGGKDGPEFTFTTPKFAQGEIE

in vitro = experiment: in vitro; design: MTT metabolic activity assay, absorbance at 570 nm; conditions: human, single replicate
Procedure: as §1

BJ-hTERT = experiment: in vitro; design: MTT metabolic activity assay, absorbance at 570 nm; conditions: single replicate, 48 h
Procedure: as §1

HFP4 = experiment: in vitro; design: MTT metabolic activity assay, absorbance at 570 nm; conditions: single replicate, 48 h
Procedure: as §1

U251 = experiment: cells; design: Cell growth by dye staining of fixed cells, absorbance at 630 nm, independent of mitochondrial respiration; conditions: Homo sapiens, U-251, 72 h, single replicate
Procedure: as §1

Gl261 = experiment: cells; design: Cell growth by dye staining of fixed cells, absorbance at 630 nm, independent of mitochondrial respiration; conditions: Mus musculus, GL261, 72 h, single replicate
Procedure: as §1

[2] = replicate 1, read-out: Bis-PMS 6 (IC50 / µM)
[3] = replicate 2, read-out: Bis-PMS 6 (IC50 / µM)
[4] = replicate 3, read-out: Bis-PMS 6 (IC50 / µM)
[5] = replicate 1, read-out: Bis-PMS 5 (IC50 / µM)
[6] = replicate 2, read-out: Bis-PMS 5 (IC50 / µM)
[7] = replicate 3, read-out: Bis-PMS 5 (IC50 / µM)

Molecule: tocilizumab
- Kd (IL-6R (Homo sapiens)): 2.54 nM

- IC50 (BT-20; [2]): 0.724 µM
- IC50 (BT-20; [3]): 0.617 µM
- IC50 (BT-20; [4]): 0.997 µM
- IC50 (H1299; [3]): 0.199 µM
- IC50 (H1299; [4]): 0.138 µM
- IC50 (U2-OS; [2]): 0.257 µM
- IC50 (U2-OS; [3]): 0.347 µM
- IC50 (U2-OS; [4]): 0.123 µM
- Kd [1]: 304 ± 27.6 nM
- IC50 (U251; [2]): 0.485 µM
- IC50 (U251; [3]): 0.526 µM
Molecule: CN1C(=CC=C(C=CC2=[N+](C)c3ccccc3C2(C)C)c2cccc(C(C=CC3=[N+](C)c4ccccc4C3(C)C)=CC=C3N(C)c4ccccc4C3(C)C)c2)C(C)(C)c2ccccc21 [compound 6, m-bis-pentamethinium salt 6]
- IC50 (BLM; [2]): 0.933 µM
- IC50 (BLM; [4]): 1.91 µM
- IC50 (A2058; [2]): 0.191 µM
- IC50 (A2058; [3]): 1.07 µM
- IC50 (A2058; [4]): 0.646 µM
- CC50 at 48 h (in vitro; hf-p4 cells, Bis-PMS 6 (IC50 / µM), replicate 1): 1.05 µM
- CC50 (BJ-hTERT; [3]): 1.66 µM
- CC50 (BJ-hTERT; [4]): 0.776 µM
- CC50 (HFP4; [4]): 1.95 µM
- IC50 (Gl261; [2]): 0.218 µM
- IC50 (Gl261; [3]): 0.319 µM

- IC50 (BT-20; [5]): 0.832 µM
- IC50 (BT-20; [6]): 0.38 µM
- IC50 (BT-20; [7]): 0.891 µM
- IC50 (H1299; [5]): 2.69 µM
- IC50 (H1299; [6]): 2.82 µM
- IC50 (U2-OS; [5]): 0.562 µM
- IC50 (U2-OS; [6]): 0.631 µM
- IC50 (U2-OS; [7]): 0.295 µM
- Kd [1]: 26.5 ± 2.5 nM
- IC50 (U251; [5]): 0.501 µM
- IC50 (U251; [6]): 0.938 µM
Molecule: CN1C(=CC=C(C=CC2=[N+](C)c3ccccc3C2(C)C)c2ccc(C(C=CC3=[N+](C)c4ccccc4C3(C)C)=CC=C3N(C)c4ccccc4C3(C)C)cc2)C(C)(C)c2ccccc21 [compound 5, p-bis-pentamethinium salt 5]
- IC50 (BLM; [5]): 0.417 µM
- IC50 (BLM; [7]): 0.183 µM
- IC50 (A2058; [6]): 0.396 µM
- IC50 (A2058; [7]): 0.178 µM
- CC50 at 48 h (in vitro; bj-htert cells, Bis-PMS 5 (IC50 / µM), replicate 2): 1.7 µM
- CC50 (BJ-hTERT; [7]): 1.62 µM
- CC50 (HFP4; [5]): 1.78 µM
- CC50 (HFP4; [6]): 0.427 µM
- CC50 (HFP4; [7]): 0.757 µM
- IC50 (Gl261; [5]): 0.9 µM
- IC50 (Gl261; [6]): 1.04 µM
